IC50 data for 34 compounds are collected here from US9637491B2, “Pyrazolo[4,3-D]pyrimidines as kinase inhibitors” (Origenis GmbH, priority 2012, dated 2017).

This assay has as its target T1, SYK kinase (Homo sapiens, UniProt P43405).
T1 construct: purchased Invitrogen, Carlsbad
Nature of the assay: SYK assay (OMNIA Kinase Assay, Invitrogen). The assay is classed as biochemical. Particulars: SYK Activities; 1 mM ATP, 10 μM Omnia Peptide Substrate Tyr 7, 30° C. The method, boiled down:
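SYK was added last to start phosphorylation of a chelation-enhanced SOX peptide substrate (10 μM) in the presence of 1 mM ATP and 0.2 mM DTT at 30° C. Kinetic readings at λex 360/λem 485 nm over 30 min gave velocities, fitted sigmoidally against compound concentration to give IC50.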
Usually IC50 stands for the concentration needed to halve the response being measured. The low end stands for greater potency, the high end for weaker potency. On to `COCC(COC)n1cc(Nc2nc(-c3cccc(-c4cccnc4)c3)nc3cn[nH]c23)cn1` [Example 467, N-(1-(1,3-dimethoxypropan-2-yl)-1H-pyrazol-4-yl)-5-(3-(pyridin-3-yl)phenyl)-1H-pyrazolo[4,3-d]pyrimidin-7-amine], for which the IC50 was in the range of 100 to 1000 nM. The same measure for `CC(C)(C)N1CCC(n2cc(Nc3nc(-c4ccc5cn[nH]c5c4)nc4cn[nH]c34)cn2)CC1` [Example 468, N-(1-(1-(tert-butyl)piperidin-4-yl)-1H-pyrazol-4-yl)-5-(1H-indazol-6-yl)-1H-pyrazolo[4,3-d]pyrimidin-7-amine]: under 10 nM; for `CC(C)C(C)n1cc(Nc2nc(-c3ccc4cn[nH]c4c3)nc3cn[nH]c23)cn1` (stereo not shown) [Example 469, 5-(1H-indazol-6-yl)-N-(1-(3-methylbutan-2-yl)-1H-pyrazol-4-yl)-1H-pyrazolo[4,3-d]pyrimidin-7-amine]: 10 to 100 nM; for `CN1C(=O)COc2ccc(Nc3nc(-c4ccc5cn[nH]c5c4)nc4cn[nH]c34)cc21` [Example 470, 6-((5-(1H-indazol-6-yl)-1H-pyrazolo[4,3-d]pyrimidin-7-yl)amino)-4-methyl-2H-benzo[b][1,4]oxazin-3(4H)-one]: 100 to 1000 nM. On to `c1ccc(-n2cc(Nc3nc(-c4ccc5cn[nH]c5c4)nc4cn[nH]c34)cn2)nc1` [Example 472, 5-(1H-indazol-6-yl)-N-(1-(pyridin-2-yl)-1H-pyrazol-4-yl)-1H-pyrazolo[4,3-d]pyrimidin-7-amine], for which the IC50 was 100 to 1000 nM. `c1nn(C2CCOCC2)cc1Nc1nc(C2C3CCCCC32)nc2cn[nH]c12` (stereo not shown) [Example 473, 5-(bicyclo[4.1.0]heptan-7-yl)-N-(1-(tetrahydro-2H-pyran-4-yl)-1H-pyrazol-4-yl)-1H-pyrazolo[4,3-d]pyrimidin-7-amine] registered an IC50 of 100 to 1000 nM. Then `c1nn(C2CCNC2)cc1Nc1nc(C2C3CCCCC32)nc2cn[nH]c12` (stereo not shown) [Example 474, 5-(bicyclo[4.1.0]heptan-7-yl)-N-(1-(pyrrolidin-3-yl)-1H-pyrazol-4-yl)-1H-pyrazolo[4,3-d]pyrimidin-7-amine], with 100 to 1000 nM; and `COc1cc(Nc2nc(C3C4CCCCC43)nc3cn[nH]c23)ccc1N1CCOCC1` (stereo not shown) [Example 475, 5-(bicyclo[4.1.0]heptan-7-yl)-N-(3-methoxy-4-morpholinophenyl)-1H-pyrazolo[4,3-d]pyrimidin-7-amine], with 100 to 1000 nM; and `OCCn1cc(Nc2nc(-c3ccc4cn[nH]c4c3)nc3cn[nH]c23)cn1` [Example 476, 2-(4-((5-(1H-indazol-6-yl)-1H-pyrazolo[4,3-d]pyrimidin-7-yl)amino)-1H-pyrazol-1-yl)ethan-1-ol], with 10 to 100 nM. The same measure for `CC(c1ccccc1)n1cc(Nc2nc(-c3ccc4cn[nH]c4c3)nc3cn[nH]c23)cn1` (stereo not shown) [Example 477, 5-(1H-indazol-6-yl)-N-(1-(1-phenylethyl)-1H-pyrazol-4-yl)-1H-pyrazolo[4,3-d]pyrimidin-7-amine]: 100 to 1000 nM; for `COc1cc(Nc2nc(-c3c(C)cccc3F)nc3cn[nH]c23)ccc1N1CCOCC1` [Example 481, 5-(2-fluoro-6-methylphenyl)-N-(3-methoxy-4-morpholinophenyl)-1H-pyrazolo[4,3-d]pyrimidin-7-amine]: 100 to 1000 nM; for `CC(C)C(C)n1cc(Nc2nc(-c3ccoc3)nc3cn[nH]c23)cn1` (stereo not shown) [Example 482, 5-(furan-3-yl)-N-(1-(3-methylbutan-2-yl)-1H-pyrazol-4-yl)-1H-pyrazolo[4,3-d]pyrimidin-7-amine]: 10 to 100 nM. Then `c1cc(-c2nc(Nc3cnn(C4CCCOC4)c3)c3[nH]ncc3n2)co1` (stereo not shown) [Example 483, 5-(furan-3-yl)-N-(1-(tetrahydro-2H-pyran-3-yl)-1H-pyrazol-4-yl)-1H-pyrazolo[4,3-d]pyrimidin-7-amine], with 10 to 100 nM. For the compound `c1ccc(-n2cc(Nc3nc(-c4ccoc4)nc4cn[nH]c34)cn2)nc1` [Example 484, 5-(furan-3-yl)-N-(1-(pyridin-2-yl)-1H-pyrazol-4-yl)-1H-pyrazolo[4,3-d]pyrimidin-7-amine], the IC50 was in the range of 100 to 1000 nM. The same measure for `CCN1C(=O)COc2ccc(Nc3nc(-c4ccoc4)nc4cn[nH]c34)cc21` [Example 485, 4-ethyl-6-((5-(furan-3-yl)-1H-pyrazolo[4,3-d]pyrimidin-7-yl)amino)-2H-benzo[b][1,4]oxazin-3(4H)-one]: 100 to 1000 nM; for `CC(C(=O)O)n1cc(Nc2nc(-c3ccoc3)nc3cn[nH]c23)cn1` (stereo not shown) [Example 486, 2-(4-((5-(furan-3-yl)-1H-pyrazolo[4,3-d]pyrimidin-7-yl)amino)-1H-pyrazol-1-yl)propanoic acid]: 100 to 1000 nM; for `CC(c1ccccc1)n1cc(Nc2nc(-c3ccoc3)nc3cn[nH]c23)cn1` (stereo not shown) [Example 487, 5-(furan-3-yl)-N-(1-(1-phenylethyl)-1H-pyrazol-4-yl)-1H-pyrazolo[4,3-d]pyrimidin-7-amine]: 100 to 1000 nM.

Consider `CN1C(=O)COc2ccc(Nc3nc(-c4ccoc4)nc4cn[nH]c34)cc21` [Example 488, 6-((5-(furan-3-yl)-1H-pyrazolo[4,3-d]pyrimidin-7-yl)amino)-4-methyl-2H-benzo[b][1,4]oxazin-3(4H)-one], for which the IC50 fell in the range of 10 to 100 nM. The same measure for `CC(C(=O)O)n1cc(Nc2nc(-c3ccc4cn[nH]c4c3)nc3cn[nH]c23)cn1` (stereo not shown) [Example 493, 2-(4-((5-(1H-indazol-6-yl)-1H-pyrazolo[4,3-d]pyrimidin-7-yl)amino)-1H-pyrazol-1-yl)propanoic acid]: 100 to 1000 nM. Then `CC(C)(C)N1CCC(n2cc(Nc3nc(-c4nc5c(s4)CCCC5)nc4cn[nH]c34)cn2)CC1` [Example 495, N-(1-(1-(tert-butyl)piperidin-4-yl)-1H-pyrazol-4-yl)-5-(4,5,6,7-tetrahydrobenzo[d]thiazol-2-yl)-1H-pyrazolo[4,3-d]pyrimidin-7-amine], with 10 to 100 nM.

`c1nn(C2CCOCC2)cc1Nc1nc(-c2nc3c(s2)CCCC3)nc2cn[nH]c12` [Example 496, N-(1-(tetrahydro-2H-pyran-4-yl)-1H-pyrazol-4-yl)-5-(4,5,6,7-tetrahydrobenzo[d]thiazol-2-yl)-1H-pyrazolo[4,3-d]pyrimidin-7-amine] had an IC50 of 10 to 100 nM. Turning to `CN1C(=O)COc2ccc(Nc3nc(C4CC4)nc4cn[nH]c34)cc21` [Example 497, 6-((5-cyclopropyl-1H-pyrazolo[4,3-d]pyrimidin-7-yl)amino)-4-methyl-2H-benzo[b][1,4]oxazin-3(4H)-one], the half-inhibitory concentration (IC50) is 100 to 1000 nM.

Take `CC(C)C(C)n1cc(Nc2nc(C3CC3)nc3cn[nH]c23)cn1` (stereo not shown) [Example 498, 5-cyclopropyl-N-(1-(3-methylbutan-2-yl)-1H-pyrazol-4-yl)-1H-pyrazolo[4,3-d]pyrimidin-7-amine]: the half-maximal inhibitory concentration (IC50) fell in the range of 10 to 100 nM. The same measure for `CN1CCN(C(=O)c2ccc(Nc3nc(-c4c(F)cccc4F)nc4cn[nH]c34)cc2)CC1` [Example 500, (4-((5-(2,6-difluorophenyl)-1H-pyrazolo[4,3-d]pyrimidin-7-yl)amino)phenyl)(4-methylpiperazin-1-yl)methanone]: 100 to 1000 nM. Take `OCCN1CCN(c2ccc(Nc3nc(-c4c(F)cccc4F)nc4cn[nH]c34)cc2)CC1` [Example 501, 2-(4-(4-((5-(2,6-difluorophenyl)-1H-pyrazolo[4,3-d]pyrimidin-7-yl)amino)phenyl)piperazin-1-yl)ethan-1-ol]: the IC50 fell in the range of 10 to 100 nM. The same measure for `N#Cc1cc(Nc2nc(-c3c(F)cccc3F)nc3cn[nH]c23)ccc1N1CCOCC1` [Example 502, 5-((5-(2,6-difluorophenyl)-1H-pyrazolo[4,3-d]pyrimidin-7-yl)amino)-2-morpholinobenzonitrile]: 10 to 100 nM; for `O=C(C1CC1)N1CCCc2ccc(Nc3nc(C4CC4)nc4cn[nH]c34)cc21` [Example 503, cyclopropyl(7-((5-cyclopropyl-1H-pyrazolo[4,3-d]pyrimidin-7-yl)amino)-3,4-dihydroquinolin-1(2H)-yl)methanone]: 100 to 1000 nM; for `CC(C(=O)O)n1cc(Nc2nc(C3CC3)nc3cn[nH]c23)cn1` (stereo not shown) [Example 504, 2-(4-((5-cyclopropyl-1H-pyrazolo[4,3-d]pyrimidin-7-yl)amino)-1H-pyrazol-1-yl)propanoic acid]: 100 to 1000 nM. With `c1nn(C2CCCOC2)cc1Nc1nc(-c2ccc3cn[nH]c3c2)nc2cn[nH]c12` (stereo not shown) [Example 505, 5-(1H-indazol-6-yl)-N-(1-(tetrahydro-2H-pyran-3-yl)-1H-pyrazol-4-yl)-1H-pyrazolo[4,3-d]pyrimidin-7-amine], the IC50 fell in the range of 10 to 100 nM.

As to `Oc1ccccc1Nc1nc(-c2ccc3cn[nH]c3c2)nc2cn[nH]c12` [Example 506, 2-((5-(1H-indazol-6-yl)-1H-pyrazolo[4,3-d]pyrimidin-7-yl)amino)phenol], the half-inhibitory concentration (IC50) lay within 100 to 1000 nM.

`COc1cc(Nc2nc([C@H]3C[C@@H]3c3ccccc3)nc3cn[nH]c23)ccc1N1CCOCC1` [Example 508, N-(3-methoxy-4-morpholinophenyl)-5-((1S,2S)-2-phenylcyclopropyl)-1H-pyrazolo[4,3-d]pyrimidin-7-amine]: the IC50 lay in the range of 100 to 1000 nM. Then `COc1ccc(Nc2nc(-c3cnn(C(C)C(C)C)c3)nc3cn[nH]c23)cc1OC` (stereo not shown) [Example 511, N-(3,4-dimethoxyphenyl)-5-(1-(3-methylbutan-2-yl)-1H-pyrazol-4-yl)-1H-pyrazolo[4,3-d]pyrimidin-7-amine], with 100 to 1000 nM; and `COc1ccc(Nc2nc(-c3c(F)cccc3Cl)nc3cn[nH]c23)cc1OC` [Example 513, 5-(2-chloro-6-fluorophenyl)-N-(3,4-dimethoxyphenyl)-1H-pyrazolo[4,3-d]pyrimidin-7-amine], with 100 to 1000 nM; and `COc1cc(Nc2nc(-c3c(F)cccc3Cl)nc3cn[nH]c23)ccc1N1CCOCC1` [Example 514, 5-(2-chloro-6-fluorophenyl)-N-(3-methoxy-4-morpholinophenyl)-1H-pyrazolo[4,3-d]pyrimidin-7-amine], with 10 to 100 nM.
